Bridge positions count the residues as written; N and C are the ends. Square brackets hold non-standard residues; d marks the D form. Peptide text beside a SMILES is read from it. * marks the point of attachment. Bip = N[C@@H](Cc1ccc(-c2ccccc2)cc1)C(=O)O; Phe(3-Me) = Cc1cccc(C[C@H](N)C(=O)O)c1; hArg = N=C(N)NCCCC[C@H](N)C(=O)O; Cha = N[C@@H](CC1CCCCC1)C(=O)O; Carboxymethyl = O=C(O)C*; Orn = NCCC[C@H](N)C(=O)O; Aun = NCCCCCCCCCCC(=O)O; Dab = NCC[C@H](N)C(=O)O; Dap = NC[C@H](N)C(=O)O; AEEA = NCCOCCOCC(=O)O

T1 sequence (Q15116 25-288): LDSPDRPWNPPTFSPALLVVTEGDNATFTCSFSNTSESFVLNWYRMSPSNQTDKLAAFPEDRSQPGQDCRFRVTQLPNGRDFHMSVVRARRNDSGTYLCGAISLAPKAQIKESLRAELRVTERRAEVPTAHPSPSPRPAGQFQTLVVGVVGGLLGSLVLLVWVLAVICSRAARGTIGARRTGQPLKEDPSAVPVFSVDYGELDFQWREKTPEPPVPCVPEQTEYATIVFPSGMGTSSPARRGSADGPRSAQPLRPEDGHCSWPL

The test concerns the target T1, PD-1/PD-L1 interaction (PE-labeled human PD-L1-Ig binding to Jurkat cell line over-expressing human PD-1) (Homo sapiens, UniProt Q15116).
T1 construct: expressed in transfected cells; host or cells: Jurkat
Put plainly: Jurkat-PD-1 Cell Binding High-Content Screening Assay (CBA). To be noted: Jurkat cell line over-expressing human PD-1; PE-labeled PD-L1-Ig 20 nM final; read-out: Jurkat hPD1-PDL1 IC50. In kind it is cell-based. In outline: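 Binding of fluorescent PD-L1-Ig (phycoerythrin on Ig tag, 20 nM final, 1 h) measured by high-content imaging of fixed, Hoechst-counterstained Jurkat-hPD-1 cells. Compound added 2 h at 37° C beforehand, in DMEM with 10% fetal calf serum.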
`Cc1cccc(C[C@@H]2NC(=O)[C@H](CC(=O)O)NC(=O)[C@H](Cc3ccc(OCC(=O)O)cc3)NC(=O)[C@H](CCCCNC(=N)N)NC(=O)CSC[C@@H](C(=O)N[C@@H](CCN)C(=O)NCCOCCOCC(=O)NCCCCCCCCCCC(=O)O)NC(=O)[C@H](CCCN)NC(=O)[C@H](C(C)C)NC(=O)[C@H](CC3CCCCC3)NC(=O)[C@H](CCN)NC(=O)[C@@H](CC(C)C)NC(=O)[C@H](CN)NC(=O)[C@H](C(C)C)NC(=O)[C@H](Cc3ccc(-c4ccccc4)cc3)NC(=O)[C@H](C(C)C)NC2=O)c1` [Compound 3244] ({CH2CO}-[hArg]Y(Carboxymethyl)D[Phe(3-Me)]V[Bip]V[Dap][dL][Dab][Cha]V[Orn]C[Dab][AEEA][Aun]-OH; thioether N-14): the IC50 is 0.0109 µM. In the case of `Cc1cccc(C[C@@H]2NC(=O)[C@H](CC(=O)O)NC(=O)[C@H](Cc3ccc(OCC(=O)O)cc3)NC(=O)[C@H](CCCCNC(=N)N)NC(=O)CSC[C@@H](C(=O)N[C@@H](CCN)C(=O)NCCOCCOCC(=O)NCCCCCCCCCCC(=O)O)NC(=O)[C@H](CCCN)NC(=O)[C@H](C(C)C)NC(=O)[C@H](CC3CCCCC3)NC(=O)[C@H](CCN)NC(=O)[C@@H](CC(C)C)NC(=O)[C@H](CCCN)NC(=O)[C@H](C(C)C)NC(=O)[C@H](Cc3ccc(-c4ccccc4)cc3)NC(=O)[C@H](C(C)C)NC2=O)c1` [Compound 3245] ({CH2CO}-[hArg]Y(Carboxymethyl)D[Phe(3-Me)]V[Bip]V[Orn][dL][Dab][Cha]V[Orn]C[Dab][AEEA][Aun]-OH; thioether N-14), the IC50 came to 0.011 µM. As to `Cc1cccc(C[C@@H]2NC(=O)[C@H](CC(=O)O)NC(=O)[C@H](Cc3ccc(OCC(=O)O)cc3)NC(=O)[C@H](CCCCNC(=N)N)NC(=O)CSC[C@@H](C(=O)NCC(=O)NCCOCCOCC(=O)N[C@@H](CCN)C(=O)NCCCCCCCCCCC(=O)O)NC(=O)[C@H](CCCN)NC(=O)[C@H](C(C)C)NC(=O)[C@H](CC3CCCCC3)NC(=O)[C@H](CCN)NC(=O)[C@@H](CC(C)C)NC(=O)[C@H](CCCN)NC(=O)[C@H](C(C)C)NC(=O)[C@H](Cc3ccc(-c4ccccc4)cc3)NC(=O)[C@H](C(C)C)NC2=O)c1` [Compound 3246] ({CH2CO}-[hArg]Y(Carboxymethyl)D[Phe(3-Me)]V[Bip]V[Orn][dL][Dab][Cha]V[Orn]CG[AEEA][Dab][Aun]-OH; thioether N-14), the IC50 was determined as 0.0265 µM. Turning to `Cc1cccc(C[C@@H]2NC(=O)[C@H](CC(=O)O)NC(=O)[C@H](Cc3ccc(OCC(=O)O)cc3)NC(=O)[C@H](CCCCNC(=N)N)NC(=O)CSC[C@@H](C(=O)N[C@@H](CCCN)C(=O)NCCCCCCCCCCC(=O)O)NC(=O)[C@H](CCCN)NC(=O)[C@H](C(C)C)NC(=O)[C@H](CC3CCCCC3)NC(=O)[C@H](CCN)NC(=O)[C@@H](CC(C)C)NC(=O)[C@H](CCCN)NC(=O)[C@H](C(C)C)NC(=O)[C@H](Cc3ccc(-c4ccccc4)cc3)NC(=O)[C@H](C(C)C)NC2=O)c1` [Compound 3247] ({CH2CO}-[hArg]Y(Carboxymethyl)D[Phe(3-Me)]V[Bip]V[Orn][dL][Dab][Cha]V[Orn]C[Orn][Aun]-OH; thioether N-14), the IC50 came out at 0.0148 µM. For the compound `Cc1cccc(C[C@@H]2NC(=O)[C@H](CC(=O)O)NC(=O)[C@H](Cc3ccc(OCC(=O)O)cc3)NC(=O)[C@H](CCCCNC(=N)N)NC(=O)CSC[C@@H](C(=O)NCCOCCOCC(=O)N[C@@H](CCN)C(=O)NCCCCCCCCCCC(=O)O)NC(=O)[C@H](CCCN)NC(=O)[C@H](C(C)C)NC(=O)[C@H](CC3CCCCC3)NC(=O)[C@H](CCN)NC(=O)[C@@H](CC(C)C)NC(=O)[C@H](CCCN)NC(=O)[C@H](C(C)C)NC(=O)[C@H](Cc3ccc(-c4ccccc4)cc3)NC(=O)[C@H](C(C)C)NC2=O)c1` [Compound 3248] ({CH2CO}-[hArg]Y(Carboxymethyl)D[Phe(3-Me)]V[Bip]V[Orn][dL][Dab][Cha]V[Orn]C[AEEA][Dab][Aun]-OH; thioether N-14), the IC50 came to 0.0036 µM.
